The results in this text go back to patent publication US10336730B2, “Substituted glycine derived FXIA inhibitors” (BRISTOL-MYERS SQUIBB COMPANY, priority 2015, dated 2019).

What all share (format): biochemical
In test [1] the target is T1, purified human Factor XIa (Homo sapiens, UniProt P03951).
T1 construct: purchased Haematologic Technologies
Description: Factor XIa enzyme inhibition assay (chromogenic substrate S-2366), Ki. The conditions noted are these: substrate S-2366, pH 7.4. In outline:
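Purified human Factor XIa ([…] final) with chromogenic substrate S-2366 (0.0002-0.001 M) in 50 mM HEPES pH 7.4, 145 mM NaCl, 5 mM KCl, 0.1% PEG 8000. Velocities measured over 20-180 minutes with and without inhibitor; Ki derived assuming competitive inhibition, e.g. Ki=IC50/(1+S/Km).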

Test [2] relates to citrated normal human plasma. Description: Activated Partial Thromboplastin Time (aPTT) plasma clotting assay. To be noted: inhibitor concentration required to increase the clotting time by 1.5 times. The source says:
The effectiveness of compounds of the present invention as inhibitors of coagulation can be determined using a standard or modified clotting assay. An increase in the plasma clotting time in the presence of inhibitor is indicative of anticoagulation. Relative clotting time is the clotting time in the presence of an inhibitor divided by the clotting time in the absence of an inhibitor. The results of this assay may be expressed as IC1.5× or IC2×, the inhibitor concentration required to increase the clotting time by 1.5 times or 2 times, respectively, relative to the clotting time in the absence of the inhibitor. The IC1.5× or IC2× is found by linear interpolation from relative clotting time versus inhibitor concentration plots using inhibitor concentrations that span the IC1.5× or IC2×.
Clotting times are determined using citrated normal human plasma as well as plasma obtained from a number of laboratory animal species (e.g., rat, or rabbit). A compound is diluted into plasma beginning with a 10 mM DMSO stock solution. The final concentration of DMSO is less than 2%. Plasma clotting assays are performed in an automated coagulation analyzer (Sysmex, Dade-Behring, Illinois). Similarly, clotting times can be determined from laboratory animal species or humans dosed with compounds of the invention.
Activated Partial Thromboplastin Time (aPTT) is determined using ACTIN® FSL (Dade-Behring, Illinois) following the directions in the package insert. Plasma (0.05 mL) is warmed to 37° C. for 1 minute. ACTIN® FSL (0.05 mL) is added to the plasma and incubated for an additional 2 to 5 minutes. Calcium chloride (25 mM, 0.05 mL) is added to the reaction to initiate coagulation. The clotting time is the time in seconds from the moment calcium chloride is added until a clot is detected.

The target of test [3] is T2, purified human plasma kallikrein (Homo sapiens, UniProt P03952).
T2 construct: purchased Enzyme Research Laboratories
Description: Plasma kallikrein enzyme inhibition assay (chromogenic substrate S-2302), Ki. To be noted: substrate S-2302, pH 7.5. As for the experimental part:
The effectiveness of compounds of the present invention as inhibitors of the coagulation Factors XIa, VIIa, IXa, Xa, XIIa, plasma kallikrein, thrombin, chemytrypsin or trypsin can be determined using a relevant purified serine protease, respectively, and an appropriate synthetic substrate. The rate of hydrolysis of the chromogenic or fluorogenic substrate by the relevant serine protease was measured both in the absence and presence of compounds of the present invention. […] A decrease in the rate of absorbance or fluorescence change in the presence of inhibitor is indicative of enzyme inhibition. Such methods are known to one skilled in the art. The results of this assay are expressed as the inhibitory constant, Ki.
Plasma kallikrein determinations were made in 0.1 M sodium phosphate buffer at a pH of 7.5 containing 0.1-0.2 M sodium chloride and 0.5% PEG 8000. Determinations were made using purified human plasma kallikrein (Enzyme Research Laboratories) at a final assay concentration of […] and the synthetic substrate S-2302 (H-(D)-Pro-Phe-Arg-pNA; CHROMOGENIX®) at a concentration of 0.00008-0.0004 M.
Values of Ki were determined by allowing the protease to react with the substrate in the presence of the inhibitor. Reactions were allowed to go for periods of 20-180 minutes (depending on the protease) and the velocities (rate of absorbance or fluorescence change versus time) were measured. The following relationships were used to calculate Ki values: (Vmax*S)/(Km+S) (vo−vs)/vs=I/(Ki*(1+S/Km)) for a competitive inhibitor with one binding site; or vs/vo=A+(B−A)/(1+(IC50/(I)^n)); and Ki=IC50/(1+S/Km) for a competitive inhibitor where: […]

The Ki is a measure of affinity in units of concentration, obtained from inhibition or displacement. Higher therefore signals a looser hold on the target.

T1 sequence (P03951 388-625 limits assumed): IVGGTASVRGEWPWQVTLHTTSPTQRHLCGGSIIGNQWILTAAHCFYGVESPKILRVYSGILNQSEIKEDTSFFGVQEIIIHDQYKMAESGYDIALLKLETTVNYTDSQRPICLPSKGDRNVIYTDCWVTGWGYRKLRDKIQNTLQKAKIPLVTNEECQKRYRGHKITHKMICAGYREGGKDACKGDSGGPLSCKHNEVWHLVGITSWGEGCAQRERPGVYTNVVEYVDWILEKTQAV
T1 sequence (P03951 19-387 partner limits assumed): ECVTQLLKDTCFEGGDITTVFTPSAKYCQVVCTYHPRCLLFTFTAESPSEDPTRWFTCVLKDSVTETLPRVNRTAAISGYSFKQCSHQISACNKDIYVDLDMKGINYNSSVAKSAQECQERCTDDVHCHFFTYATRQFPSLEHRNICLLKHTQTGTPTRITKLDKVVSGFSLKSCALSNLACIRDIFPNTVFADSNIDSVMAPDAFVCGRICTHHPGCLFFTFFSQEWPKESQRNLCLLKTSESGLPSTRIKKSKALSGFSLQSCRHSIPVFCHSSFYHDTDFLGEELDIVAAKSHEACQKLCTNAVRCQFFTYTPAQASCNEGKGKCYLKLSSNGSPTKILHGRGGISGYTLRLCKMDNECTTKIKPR
T2 sequence (P03952 391-638 limits assumed): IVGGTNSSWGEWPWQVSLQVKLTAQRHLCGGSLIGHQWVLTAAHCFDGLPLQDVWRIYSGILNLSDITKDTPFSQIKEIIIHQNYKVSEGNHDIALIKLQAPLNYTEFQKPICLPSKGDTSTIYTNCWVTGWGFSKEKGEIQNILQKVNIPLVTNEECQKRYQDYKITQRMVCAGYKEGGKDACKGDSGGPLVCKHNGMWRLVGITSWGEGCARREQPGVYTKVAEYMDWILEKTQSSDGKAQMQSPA
T2 sequence (P03952 20-390 partner limits assumed): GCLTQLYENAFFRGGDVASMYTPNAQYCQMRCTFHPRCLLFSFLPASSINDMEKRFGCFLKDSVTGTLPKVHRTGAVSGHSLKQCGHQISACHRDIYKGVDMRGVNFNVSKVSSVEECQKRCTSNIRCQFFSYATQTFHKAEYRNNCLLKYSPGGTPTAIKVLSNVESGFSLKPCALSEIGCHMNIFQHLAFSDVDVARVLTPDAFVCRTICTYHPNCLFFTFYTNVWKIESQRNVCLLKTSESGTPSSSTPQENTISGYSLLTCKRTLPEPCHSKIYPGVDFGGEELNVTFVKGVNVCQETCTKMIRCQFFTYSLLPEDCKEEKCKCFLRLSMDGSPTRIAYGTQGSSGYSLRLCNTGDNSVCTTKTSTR

Turning to `O=C(O)c1ccc(NC(=O)[C@H](Cc2ccccc2)n2cnc(-c3c(-n4cc(Cl)nn4)ccc(Cl)c3F)cc2=O)cc1` [Example 9, (S)-4-(2-(4-(3-chloro-6-(4-chloro-1H-1,2,3-triazol-1-yl)-2-fluorophenyl)-6-oxopyrimidin-1(6H)-yl)-3-phenylpropanamido)benzoic Acid], the Ki worked out at 0.64 nM in test [1] and 36 nM in test [3]. Moreover, the “aPTT (IC1.5×)” value in test [2] stood at 0.91 µM.

Regarding `O=C(O)Cn1cc(NC(=O)[C@H](Cc2ccccc2)n2cnc(-c3cc(Cl)ccc3-n3cc(Cl)nn3)cc2=O)cn1` [Example 11, 2-{4-[(2S)-2-{4-[5-Chloro-2-(4-chloro-1H-1,2,3-triazol-1-yl)phenyl]-6-oxo-1,6-dihydropyrimidin-1-yl}-3-phenyl-propanamido]-1H-pyrazol-1-yl}acetic Acid], the values for the Ki in test [1] and in test [3] were 56.4 nM and 2100 nM, respectively.

Regarding `O=C(Nc1ccccc1)[C@H](Cc1ccccc1)n1cnc(-c2cc(Cl)ccc2-n2cc(Cl)nn2)cc1=O` [Example 12, (S)-2-(4-(5-chloro-2-(4-chloro-1H-1,2,3-triazol-1-yl)phenyl)-6-oxopyrimidin-1(6H)-yl)-N,3-diphenylpropanamide], the Ki in test [1] came out at 35.7 nM; in test [3], 1480 nM.

Consider `O=C(Nc1ccncc1)[C@H](Cc1ccccc1)n1cnc(-c2cc(Cl)ccc2-n2cc(Cl)nn2)cc1=O` [Example 13, (S)-2-(4-(5-chloro-2-(4-chloro-1H-1,2,3-triazol-1-yl)phenyl)-6-oxopyrimidin-1(6H)-yl)-3-phenyl-N-(pyridin-4-yl)propanamide], for which the values for the Ki in test [1] and in test [3] were 43.6 nM and 984 nM, respectively.

Consider `O=C(O)c1ccc(NC(=O)[C@H](Cc2ccccc2)n2cnc(-c3cc(Cl)ccc3-n3cc(C(F)(F)F)nn3)cc2=O)cc1` [Example 14, (S)-4-(2-(4-(5-chloro-2-(4-(trifluoromethyl)-1H-1,2,3-triazol-1-yl)phenyl)-6-oxopyrimidin-1(6H)-yl)-3-phenylpropanamido)benzoic Acid], for which the Ki in test [1] was found to be 3.1 nM; in test [3], 239 nM. Also, the “aPTT (IC1.5×)” value in test [2] stood at 1.85 µM.

For the molecule `O=C(O)c1ccc(NC(=O)[C@H](Cc2ccccc2)n2cnc(-c3cc(Cl)ccc3-n3cc(Cl)nn3)cc2=O)cc1` [Example 15, (S)-4-(2-(4-(5-chloro-2-(4-chloro-1H-1,2,3-triazol-1-yl)phenyl)-6-oxopyrimidin-1(6H)-yl)-3-phenylpropanamido)benzoic Acid], the Ki in test [1] came to 2.5 nM; in test [3] it was 189 nM. Besides, the “aPTT (IC1.5×)” value in test [2] stood at 1.74 µM.

For `O=C(Nc1ccc2[nH]c(C(F)(F)F)nc2c1)[C@H](Cc1ccccc1)n1cnc(-c2cc(Cl)ccc2-n2cc(Cl)nn2)cc1=O` [Example 16, (S)-2-(4-(5-chloro-2-(4-chloro-1H-1,2,3-triazol-1-yl)phenyl)-6-oxopyrimidin-1(6H)-yl)-3-phenyl-N-(2-(trifluoromethyl)-1H-benzo[d]imidazol-5-yl)propanamide], the Ki in test [1] worked out at 26 nM; in test [3], 257 nM.

As to `O=C(Nc1ccc2c(c1)OCO2)[C@H](Cc1ccccc1)n1cnc(-c2cc(Cl)ccc2-n2cc(Cl)nn2)cc1=O` [Example 18, (S)—N-(benzo[d][1,3]dioxol-5-yl)-2-(4-(5-chloro-2-(4-chloro-1H-1,2,3-triazol-1-yl)phenyl)-6-oxopyrimidin-1(6H)-yl)-3-phenylpropanamide], the Ki in test [1] stood at 99.4 nM; in test [3], 1480 nM.

Consider `O=C(NCc1ccccc1)[C@H](Cc1ccccc1)n1cnc(-c2cc(Cl)ccc2-n2cc(Cl)nn2)cc1=O` [Example 19, (S)—N-benzyl-2-(4-(5-chloro-2-(4-chloro-1H-1,2,3-triazol-1-yl)phenyl)-6-oxopyrimidin-1(6H)-yl)-3-phenylpropanamide], for which the Ki in test [1] was determined as 357 nM; in test [3] it was 13300 nM.

Molecule `O=C1Cc2cc(NC(=O)[C@H](Cc3ccccc3)n3cnc(-c4cc(Cl)ccc4-n4cc(Cl)nn4)cc3=O)ccc2N1` [Example 23, (S)-2-(4-(5-chloro-2-(4-chloro-1H-1,2,3-triazol-1-yl)phenyl)-6-oxopyrimidin-1(6H)-yl)-N-(2-oxoindolin-5-yl)-3-phenylpropanamide] showed a Ki in test [1] of 6.6 nM. Besides, the “aPTT (IC1.5×)” value in test [2] stood at 8.0 µM.

`O=C(Nc1ccc2nccnc2c1)[C@H](Cc1ccccc1)n1cnc(-c2cc(Cl)ccc2-n2cc(Cl)nn2)cc1=O` [Example 30, (S)-2-(4-(5-chloro-2-(4-chloro-1H-1,2,3-triazol-1-yl)phenyl)-6-oxopyrimidin-1(6H)-yl)-3-phenyl-N-(quinoxalin-6-yl)propanamide] registered a Ki in test [1] of 6.44 nM. In test [2], the “aPTT (IC1.5×)” value came to 15.2 µM.

Take `O=C(Nc1ccc2c(=O)[nH]ccc2c1)[C@H](Cc1ccccc1)n1cnc(-c2cc(Cl)ccc2-n2cc(Cl)nn2)cc1=O` [Example 96, (S)-2-(4-(5-chloro-2-(4-chloro-1H-1,2,3-triazol-1-yl)phenyl)-6-oxopyrimidin-1(6H)-yl)-N-(1-oxo-1,2-dihydroisoquinolin-6-yl)-3-phenylpropanamide]: in test [1], the Ki stood at 19.8 nM. Besides, the “aPTT (IC1.5×)” value in test [2] amounted to 13.6 µM.

Molecule `N#Cc1ccc(Cl)c(F)c1C1=CC(=O)N(C(Cc2ccccc2)C(=O)Nc2ccc(C(=O)O)cc2)CC1` (stereo not shown) [Example 130, 4-{2-[4-(3-Chloro-6-cyano-2-fluorophenyl)-6-oxo-1,2,3,6-tetrahydropyridin-1-yl]-3-phenylpropanamido}benzoic Acid] displayed a Ki in test [1] of 12.8 nM. Also, the “aPTT (IC1.5×)” value in test [2] came out at 17.5 µM.

The molecule `O=C(O)c1ccc(NC(=O)[C@H](Cc2ccc(NC(=O)C3CC3)cc2)N2CCC(c3cc(Cl)ccc3-n3cc(Cl)nn3)=CC2=O)cc1` [Example 141, (S)-4-(2-(4-(5-chloro-2-(4-chloro-1H-1,2,3-triazol-1-yl)phenyl)-6-oxo-3,6-dihydropyridin-1(2H)-yl)-3-(4-(cyclopropanecarboxamido)phenyl)propanamido)benzoic Acid] had a Ki in test [1] of 0.92 nM. The “aPTT (IC1.5×)” value in test [2] was determined as 2.05 µM.

In the case of `O=C(O)c1ccc(NC(=O)[C@H](Cc2ccccc2)N2CCC(c3cc(Cl)ccc3-n3cc(Cl)nn3)=CC2=O)cc1` [Example 142, (S)-4-(2-(4-(5-chloro-2-(4-chloro-1H-1,2,3-triazol-1-yl)phenyl)-6-oxo-3,6-dihydropyridin-1(2H)-yl)-3-phenylpropanamido)benzoic Acid], the affinity in test [1], expressed as Ki, was 1.73 nM. The “aPTT (IC1.5×)” value in test [2] worked out at 2.39 µM.

Regarding `O=C(O)c1ccc(NC(=O)[C@H](Cc2ccccc2)n2ncc(-c3cc(Cl)ccc3-n3cc(C(F)(F)F)nn3)cc2=O)cc1` [Example 143, 4-[(2S)-2-(4-{5-Chloro-2-[4-(trifluoromethyl)-1H-1,2,3-triazol-1-yl]phenyl}-6-oxo-1,6-dihydropyridazin-1-yl)-3-phenyl-propanamido]benzoic Acid], the Ki in test [1] amounted to 5.5 nM; in test [3], 569 nM.

Turning to `O=C(O)c1ccc(NC(=O)[C@H](Cc2ccccc2)n2ncc(-c3c(F)ccc(Cl)c3F)cc2=O)cc1` [Example 144, 4-[(2S)-2-[4-(3-Chloro-2,6-difluorophenyl)-6-oxo-1,6-dihydropyridazin-1-yl]-3-phenylpropanamido]benzoic Acid], the Ki in test [1] was 1030 nM; in test [3], 6900 nM.
